Assay results taken from ChEMBL document CHEMBL4507299, “Data for DCP probe PF-04554878” (2021).

Key:
[1] = biological target: Calcium/calmodulin-dependent protein kinase type 1G (Homo sapiens) (UniProt Q96NX5)
[2] = biological target: Homeodomain-interacting protein kinase 3 (Homo sapiens) (UniProt Q9H422)
[3] = biological target: Testis-specific serine/threonine-protein kinase 3 (Homo sapiens) (UniProt Q96PN8)
[4] = biological target: Alpha-2A adrenergic receptor (Homo sapiens) (UniProt P08913); details: Compound concentration 10.0 uM
[5] = biological target: Tyrosine-protein kinase JAK1 (Homo sapiens) (UniProt P23458)
[6] = biological target: T1, Inhibitor of nuclear factor kappa-B kinase subunit beta (Homo sapiens) (UniProt O14920)
T1 sequence (whole entry): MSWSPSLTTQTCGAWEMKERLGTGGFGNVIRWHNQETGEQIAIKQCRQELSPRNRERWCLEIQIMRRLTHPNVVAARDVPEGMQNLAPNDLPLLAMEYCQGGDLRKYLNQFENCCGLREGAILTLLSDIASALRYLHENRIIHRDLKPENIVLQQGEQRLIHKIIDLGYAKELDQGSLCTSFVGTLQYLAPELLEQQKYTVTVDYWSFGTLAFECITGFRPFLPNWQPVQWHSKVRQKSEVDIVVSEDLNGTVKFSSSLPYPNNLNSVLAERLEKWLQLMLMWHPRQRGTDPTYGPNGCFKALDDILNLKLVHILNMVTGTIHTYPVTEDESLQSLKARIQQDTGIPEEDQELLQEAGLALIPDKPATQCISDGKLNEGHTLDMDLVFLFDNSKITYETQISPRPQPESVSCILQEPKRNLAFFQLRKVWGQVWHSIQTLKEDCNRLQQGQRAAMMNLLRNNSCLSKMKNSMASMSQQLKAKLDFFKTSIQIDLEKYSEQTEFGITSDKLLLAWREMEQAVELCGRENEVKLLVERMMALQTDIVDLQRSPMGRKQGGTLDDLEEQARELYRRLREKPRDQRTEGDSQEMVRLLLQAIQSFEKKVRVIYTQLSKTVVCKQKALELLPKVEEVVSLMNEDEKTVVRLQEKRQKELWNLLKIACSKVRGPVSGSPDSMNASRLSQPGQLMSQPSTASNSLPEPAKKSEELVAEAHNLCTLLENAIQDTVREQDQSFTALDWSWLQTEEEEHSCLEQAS

[7] = test system: Epidermal growth factor receptor (Homo sapiens), P00533 [T790M]
[8] = biological target: Cyclin-dependent kinase 3 (Homo sapiens) (UniProt Q00526)
[9] = biological target: Mitogen-activated protein kinase kinase kinase kinase 3 (Homo sapiens) (UniProt Q8IVH8)
[10] = biological target: Misshapen-like kinase 1 (Homo sapiens) (UniProt Q8N4C8)
[11] = biological target: Receptor-interacting serine/threonine-protein kinase 1 (Homo sapiens) (UniProt Q13546)
[12] = biological target: cAMP-dependent protein kinase catalytic subunit beta (Homo sapiens) (UniProt P22694)
[13] = biological target: Alpha-1D adrenergic receptor (Homo sapiens) (UniProt P25100); details: Compound concentration 10.0 uM
[14] = test system: Tyrosine-protein kinase ABL1 (Homo sapiens), P00519 [F317I]
[15] = biological target: Serine/threonine-protein kinase MRCK gamma (Homo sapiens) (UniProt Q6DT37)
[16] = biological target: Serine/threonine-protein kinase Sgk2 (Homo sapiens) (UniProt Q9HBY8)
[17] = biological target: Serine/threonine-protein kinase PAK 2 (Homo sapiens) (UniProt Q13177)
[18] = biological target: Wee1-like protein kinase 2 (Homo sapiens) (UniProt P0C1S8)
[19] = test system: Hepatocyte growth factor receptor (Homo sapiens), P08581 [Y1235D]
[20] = biological target: Serine/threonine-protein kinase Nek5 (Homo sapiens) (UniProt Q6P3R8)
[21] = biological target: Serine/threonine-protein kinase RIO3 (Homo sapiens) (UniProt O14730)
[22] = biological target: Mitogen-activated protein kinase kinase kinase kinase 5 (Homo sapiens) (UniProt Q9Y4K4)
[23] = test system: Fibroblast growth factor receptor 3 (Homo sapiens), P22607 [G697C]
[24] = biological target: Homeodomain-interacting protein kinase 4 (Homo sapiens) (UniProt Q8NE63)
[25] = biological target: Epidermal growth factor receptor (Homo sapiens) (UniProt P00533)
[26] = biological target: Serine/threonine-protein kinase MARK2 (Homo sapiens) (UniProt Q7KZI7)
[27] = biological target: Tyrosine-protein kinase receptor UFO (Homo sapiens) (UniProt P30530)
[28] = test system: Phosphatidylinositol 4,5-bisphosphate 3-kinase catalytic subunit alpha isoform (Homo sapiens), P42336 [C420R]
[29] = biological target: Serine/threonine-protein kinase MRCK alpha (Homo sapiens) (UniProt Q5VT25)
[30] = biological target: Calcium/calmodulin-dependent protein kinase type 1B (Homo sapiens) (UniProt Q6P2M8)
[31] = biological target: Tyrosine-protein kinase Blk (Homo sapiens) (UniProt P51451)
[32] = biological target: Cyclin-dependent kinase-like 1 (Homo sapiens) (UniProt Q00532)
[33] = biological target: Casein kinase I isoform alpha (Homo sapiens) (UniProt P48729)
[34] = biological target: Maternal embryonic leucine zipper kinase (Homo sapiens) (UniProt Q14680)
[35] = biological target: Peripheral plasma membrane protein CASK (Homo sapiens) (UniProt O14936)
[36] = Compound concentration 100.0 nM
[37] = Compound concentration 1000.0 nM

Maternal embryonic leucine zipper kinase (Homo sapiens), sequence (Q14680 whole entry, looked up): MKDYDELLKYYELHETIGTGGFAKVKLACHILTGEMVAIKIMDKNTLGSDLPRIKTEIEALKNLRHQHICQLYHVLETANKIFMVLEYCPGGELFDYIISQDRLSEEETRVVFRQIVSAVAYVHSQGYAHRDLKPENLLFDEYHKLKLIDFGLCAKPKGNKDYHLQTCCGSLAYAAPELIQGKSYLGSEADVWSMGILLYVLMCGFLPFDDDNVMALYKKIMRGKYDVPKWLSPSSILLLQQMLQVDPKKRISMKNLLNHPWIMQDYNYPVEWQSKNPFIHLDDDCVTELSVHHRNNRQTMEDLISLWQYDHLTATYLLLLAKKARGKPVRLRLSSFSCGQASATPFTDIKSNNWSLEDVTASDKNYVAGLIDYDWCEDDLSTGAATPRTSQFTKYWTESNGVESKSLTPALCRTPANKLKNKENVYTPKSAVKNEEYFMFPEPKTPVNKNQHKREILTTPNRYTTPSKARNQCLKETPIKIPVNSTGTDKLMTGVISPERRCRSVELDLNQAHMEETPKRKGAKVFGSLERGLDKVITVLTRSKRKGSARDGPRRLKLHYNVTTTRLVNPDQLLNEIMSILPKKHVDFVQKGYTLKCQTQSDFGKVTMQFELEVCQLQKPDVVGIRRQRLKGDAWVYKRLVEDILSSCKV
Mitogen-activated protein kinase kinase kinase kinase 3 (Homo sapiens), sequence (Q8IVH8 whole entry): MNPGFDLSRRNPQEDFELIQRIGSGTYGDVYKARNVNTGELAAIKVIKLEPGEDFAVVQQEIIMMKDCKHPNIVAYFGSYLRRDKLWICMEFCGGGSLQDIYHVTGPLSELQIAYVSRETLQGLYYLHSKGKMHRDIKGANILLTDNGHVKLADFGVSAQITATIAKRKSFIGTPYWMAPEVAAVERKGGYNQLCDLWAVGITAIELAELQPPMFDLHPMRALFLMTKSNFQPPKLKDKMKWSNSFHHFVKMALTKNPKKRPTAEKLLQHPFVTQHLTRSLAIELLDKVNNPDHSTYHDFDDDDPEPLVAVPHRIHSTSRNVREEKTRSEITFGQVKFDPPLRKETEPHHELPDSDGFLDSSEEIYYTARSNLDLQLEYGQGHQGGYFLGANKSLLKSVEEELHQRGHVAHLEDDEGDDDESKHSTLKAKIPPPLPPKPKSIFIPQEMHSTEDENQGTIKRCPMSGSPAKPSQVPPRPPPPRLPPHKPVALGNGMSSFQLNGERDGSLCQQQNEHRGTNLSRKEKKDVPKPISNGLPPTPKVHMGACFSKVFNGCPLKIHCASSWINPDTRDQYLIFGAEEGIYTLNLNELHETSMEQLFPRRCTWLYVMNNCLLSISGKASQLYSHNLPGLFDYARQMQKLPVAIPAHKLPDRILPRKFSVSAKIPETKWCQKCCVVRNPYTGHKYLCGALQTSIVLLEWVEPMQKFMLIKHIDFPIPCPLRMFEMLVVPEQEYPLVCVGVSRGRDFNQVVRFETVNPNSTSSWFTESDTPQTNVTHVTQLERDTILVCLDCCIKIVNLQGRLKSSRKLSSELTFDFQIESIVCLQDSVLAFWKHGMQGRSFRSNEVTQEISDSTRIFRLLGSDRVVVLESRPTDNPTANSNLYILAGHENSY
Peripheral plasma membrane protein CASK (Homo sapiens), sequence (O14936 whole entry): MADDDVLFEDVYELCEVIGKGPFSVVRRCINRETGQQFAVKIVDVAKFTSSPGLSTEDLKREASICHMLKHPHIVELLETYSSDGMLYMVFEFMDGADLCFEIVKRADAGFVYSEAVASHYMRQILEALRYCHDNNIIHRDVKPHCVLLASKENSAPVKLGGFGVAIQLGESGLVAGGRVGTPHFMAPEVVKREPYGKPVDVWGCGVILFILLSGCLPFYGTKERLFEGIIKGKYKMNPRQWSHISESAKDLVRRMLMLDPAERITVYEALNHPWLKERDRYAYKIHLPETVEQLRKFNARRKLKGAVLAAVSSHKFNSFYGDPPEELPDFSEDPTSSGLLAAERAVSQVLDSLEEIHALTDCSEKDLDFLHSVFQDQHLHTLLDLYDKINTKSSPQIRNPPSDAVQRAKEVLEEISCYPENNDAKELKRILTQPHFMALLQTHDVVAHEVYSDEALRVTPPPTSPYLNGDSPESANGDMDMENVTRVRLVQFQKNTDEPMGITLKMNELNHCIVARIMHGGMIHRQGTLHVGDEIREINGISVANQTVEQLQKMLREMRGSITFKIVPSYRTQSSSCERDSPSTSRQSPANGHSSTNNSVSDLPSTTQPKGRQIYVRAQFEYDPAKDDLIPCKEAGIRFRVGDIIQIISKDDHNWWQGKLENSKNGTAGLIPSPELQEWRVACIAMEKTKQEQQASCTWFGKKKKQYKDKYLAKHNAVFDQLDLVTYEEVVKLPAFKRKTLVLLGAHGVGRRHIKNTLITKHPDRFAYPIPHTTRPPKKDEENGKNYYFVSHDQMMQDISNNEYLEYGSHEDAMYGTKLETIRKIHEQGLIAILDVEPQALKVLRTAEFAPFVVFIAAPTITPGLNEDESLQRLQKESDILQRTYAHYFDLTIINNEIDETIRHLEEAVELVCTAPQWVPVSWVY
Calcium/calmodulin-dependent protein kinase type 1G (Homo sapiens), sequence (Q96NX5 whole entry): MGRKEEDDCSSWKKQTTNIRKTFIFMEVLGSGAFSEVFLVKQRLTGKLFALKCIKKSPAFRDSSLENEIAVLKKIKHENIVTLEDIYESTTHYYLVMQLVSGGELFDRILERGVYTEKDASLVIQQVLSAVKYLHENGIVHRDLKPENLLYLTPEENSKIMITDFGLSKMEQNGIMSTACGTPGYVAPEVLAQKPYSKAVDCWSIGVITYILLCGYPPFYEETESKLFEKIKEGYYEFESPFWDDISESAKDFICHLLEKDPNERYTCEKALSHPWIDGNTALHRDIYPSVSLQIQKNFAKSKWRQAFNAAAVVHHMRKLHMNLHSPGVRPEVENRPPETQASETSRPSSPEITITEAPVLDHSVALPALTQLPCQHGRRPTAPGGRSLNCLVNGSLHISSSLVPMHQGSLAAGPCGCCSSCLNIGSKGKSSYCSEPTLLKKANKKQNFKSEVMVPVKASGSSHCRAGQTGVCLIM
Tyrosine-protein kinase Blk (Homo sapiens), sequence (P51451 2-505 limits assumed): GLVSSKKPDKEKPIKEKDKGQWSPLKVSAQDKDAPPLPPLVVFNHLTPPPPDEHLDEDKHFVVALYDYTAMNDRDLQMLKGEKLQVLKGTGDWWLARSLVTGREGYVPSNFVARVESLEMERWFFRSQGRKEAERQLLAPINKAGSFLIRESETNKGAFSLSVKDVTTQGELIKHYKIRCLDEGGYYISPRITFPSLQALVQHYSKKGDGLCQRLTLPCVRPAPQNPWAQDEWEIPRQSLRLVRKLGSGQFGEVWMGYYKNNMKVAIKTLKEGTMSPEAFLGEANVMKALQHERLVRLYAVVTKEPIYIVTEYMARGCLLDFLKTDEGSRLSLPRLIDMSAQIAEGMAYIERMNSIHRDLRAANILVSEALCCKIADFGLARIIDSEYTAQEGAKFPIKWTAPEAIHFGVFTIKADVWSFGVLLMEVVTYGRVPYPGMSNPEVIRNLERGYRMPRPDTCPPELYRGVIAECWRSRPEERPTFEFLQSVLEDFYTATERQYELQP
Alpha-2A adrenergic receptor (Homo sapiens), sequence (P08913 whole entry): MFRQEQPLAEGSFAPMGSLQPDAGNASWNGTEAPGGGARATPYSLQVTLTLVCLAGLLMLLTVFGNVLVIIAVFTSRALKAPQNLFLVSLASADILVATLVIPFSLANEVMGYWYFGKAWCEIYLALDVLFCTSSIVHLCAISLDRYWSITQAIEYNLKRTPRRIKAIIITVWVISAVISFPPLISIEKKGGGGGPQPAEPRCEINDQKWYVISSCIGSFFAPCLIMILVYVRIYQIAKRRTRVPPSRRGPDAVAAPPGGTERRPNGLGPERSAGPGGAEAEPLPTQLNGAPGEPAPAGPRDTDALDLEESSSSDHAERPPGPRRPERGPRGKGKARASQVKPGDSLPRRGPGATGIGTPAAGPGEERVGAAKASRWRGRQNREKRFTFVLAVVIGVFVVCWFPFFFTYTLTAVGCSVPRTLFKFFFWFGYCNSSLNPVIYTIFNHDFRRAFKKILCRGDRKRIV
Serine/threonine-protein kinase Nek5 (Homo sapiens), sequence (Q6P3R8 whole entry): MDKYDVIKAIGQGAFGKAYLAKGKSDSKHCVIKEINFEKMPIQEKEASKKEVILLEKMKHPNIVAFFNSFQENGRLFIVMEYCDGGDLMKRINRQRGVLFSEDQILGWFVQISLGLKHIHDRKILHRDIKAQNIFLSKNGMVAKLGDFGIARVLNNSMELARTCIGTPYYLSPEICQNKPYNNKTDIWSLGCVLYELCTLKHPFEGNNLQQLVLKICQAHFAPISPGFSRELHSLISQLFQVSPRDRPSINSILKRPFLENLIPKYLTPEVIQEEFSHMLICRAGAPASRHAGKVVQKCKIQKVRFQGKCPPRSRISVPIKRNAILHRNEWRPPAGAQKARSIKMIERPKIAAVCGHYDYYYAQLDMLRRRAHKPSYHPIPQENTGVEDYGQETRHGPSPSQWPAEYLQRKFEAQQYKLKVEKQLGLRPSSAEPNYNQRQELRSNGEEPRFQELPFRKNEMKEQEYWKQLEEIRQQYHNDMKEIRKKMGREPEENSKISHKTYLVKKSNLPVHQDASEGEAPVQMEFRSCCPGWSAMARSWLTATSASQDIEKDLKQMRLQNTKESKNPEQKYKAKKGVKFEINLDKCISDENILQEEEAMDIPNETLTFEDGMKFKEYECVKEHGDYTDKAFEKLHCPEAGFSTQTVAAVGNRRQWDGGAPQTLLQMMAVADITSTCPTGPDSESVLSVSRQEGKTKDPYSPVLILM
Cyclin-dependent kinase 3 (Homo sapiens), sequence (Q00526 whole entry, looked up): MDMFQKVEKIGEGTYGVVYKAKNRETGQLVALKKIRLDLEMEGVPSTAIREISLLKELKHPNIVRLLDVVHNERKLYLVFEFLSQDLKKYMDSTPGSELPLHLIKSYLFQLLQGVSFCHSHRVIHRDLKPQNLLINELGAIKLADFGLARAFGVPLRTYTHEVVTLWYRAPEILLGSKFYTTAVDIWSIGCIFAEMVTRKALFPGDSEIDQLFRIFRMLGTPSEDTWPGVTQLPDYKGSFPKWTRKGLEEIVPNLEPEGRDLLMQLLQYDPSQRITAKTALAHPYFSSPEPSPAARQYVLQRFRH

Compound: CNC(=O)c1ccc(Nc2ncc(C(F)(F)F)c(NCc3nccnc3N(C)S(C)(=O)=O)n2)cc1 [DEFACTINIB]
- residual activity [1, 36]: 89%
- residual activity [2, 36]: 47%
- residual activity [3, 36]: 77%
- inhibition [4]: 9.61%
- residual activity [5, 36]: 29%
- residual activity [6, 36]: 100%
- residual activity [7, 36]: 99%
- residual activity [8, 36]: 100%
- residual activity [9, 36]: 95%
- residual activity [10, 36]: 44%
- residual activity [11, 36]: 100%
- residual activity [12, 36]: 93%
- inhibition [13]: 4.13%
- residual activity [14, 36]: 100%
- residual activity [15, 36]: 80%
- residual activity [16, 36]: 96%
- residual activity [17, 36]: 72%
- residual activity [18, 36]: 97%
- residual activity [19, 36]: 71%
- residual activity [20, 36]: 100%
- residual activity [21, 36]: 55%
- residual activity [22, 36]: 100%
- residual activity [23, 36]: 100%
- residual activity [24, 36]: 54%
- residual activity [25, 36]: 88%
- residual activity [26, 36]: 66%
- residual activity [27, 36]: 51%
- residual activity [28, 36]: 100%
- residual activity [29, 36]: 98%
- residual activity [30, 36]: 100%
- residual activity [31, 36]: 78%
- residual activity [32, 36]: 82%
- residual activity [33, 36]: 94%
- residual activity [34, 36]: 23%
- residual activity [35, 36]: 88%

Compound: CN(c1ccnc(CNc2nc(Nc3ccc4c(c3)CC(=O)N4)ncc2C(F)(F)F)n1)S(C)(=O)=O [PF-00911705]
- residual activity [1, 37]: 95%
- residual activity [2, 37]: 48%
- residual activity [3, 37]: 80%
- inhibition [4]: 0.4%
- residual activity [5, 37]: 20%
- residual activity [6, 37]: 78%
- residual activity [7, 37]: 100%
- residual activity [8, 37]: 90%
- residual activity [9, 37]: 87%
- residual activity [10, 37]: 53%
- residual activity [11, 37]: 100%
- residual activity [12, 37]: 88%
- inhibition [13]: 15.9%
- residual activity [14, 37]: 100%
- residual activity [15, 37]: 93%
- residual activity [16, 37]: 75%
- residual activity [17, 37]: 83%
- residual activity [18, 37]: 28%
- residual activity [19, 37]: 10%
- residual activity [20, 37]: 63%
- residual activity [21, 37]: 8.5%
- residual activity [22, 37]: 72%
- residual activity [23, 37]: 89%
- residual activity [24, 37]: 35%
- residual activity [25, 37]: 74%
- residual activity [26, 37]: 47%
- residual activity [27, 37]: 21%
- residual activity [28, 37]: 91%
- residual activity [29, 37]: 80%
- residual activity [30, 37]: 66%
- residual activity [31, 37]: 40%
- residual activity [32, 37]: 61%
- residual activity [33, 37]: 81%
- residual activity [34, 37]: 40%
- residual activity [35, 37]: 85%
